Results on six compounds are retold here after US4263286A, “Therapeutic agent for consciousness disorder and perception and movement disorder” (Nippon Shoji Kaisha, Ltd., priority 1978, dated 1981).

Where a name gives a salt, the structure may show the parent alone.

Data set [1] relates to rabbits whose internal capsule was destroyed. The note with it: known therapeutic agents; already confirmed by experiments; cited from earlier work.
The test system of the next data set is sciatic nerve. The data set is described as follows: Afferent evoked potential in the cerebral cortex in response to stimulation of the sciatic nerve. The class given is in vivo. As for the experimental part: In order to test the effect of the active compound of the present invention on perception, an experiment was carried out on afferent evoked potential in response to stimulation of the sciatic nerve.
When the sciatic nerve is stimulated, the potential evoked in the cerebral cortex is recorded and summed up. These evoked electric potentials are firstly three small negative responses, subsequently a positive response and followed by two large negative responses, which are designated as N1, N2, N3, P, N4 and N5, respectively.
In order to examine the effect of a compound of the present invention: dilinoleoylphosphatidic acid disodium salt on these components, N1, N2, N3, P, N4 and N5, sciatic nerve was simulated once per 1 second and the data of 50 times of stimulus were recorded and summed up. The results are shown in the accompanying FIGS. 15, 16, 17, 18, 19 and 20 which correspond to the data of N1, N2, N3, P, N4 and N5, respectively.

A further data set concerns male mice. The data set is described as follows: Toxicity in male mice, tail intravenous. It counts as in vivo, mouse. Particulars: 100 mg/kg tail intravenous over 30 seconds; observed 75 hours.
Another data set deals with ICR mice. The data set is described as follows: 7-day toxicity in ICR mice. Particulars: mouse, in vivo.
The test system of another data set is Spragne-Dowley rats. The data set is described as follows: 7-day toxicity in rats. The note with it: rat, in vivo.

With `C[N+](C)(C)CCOP(=O)(O)OP(=O)([O-])OC[C@H]1O[C@@H](n2ccc(N)nc2=O)[C@H](O)[C@@H]1O` [Citicoline, cytidine diphosphate choline], in data set [1], the “effect on thresholds of evoked muscular discharge in fore- and hind-limbs” value (“effect on thresholds” for short) is reported as “decreasing effect of the thresholds of evoked muscular discharge”.

For `CN(C)CCOC(=O)COc1ccc(Cl)cc1.Cl` [Meclofenoxate hydrochloride, (4-chlorophenoxy)acetic acid 2-(dimethylamino)ethyl ester hydrochloride], the “effect on thresholds” value in data set [1] is reported as “decreasing effect of the thresholds of evoked muscular discharge”.

As for `Cc1ncc(CSSCc2cnc(C)c(O)c2CO)c(CO)c1O` [Pyrithioxin, 3,3'-(dithiodimethylene)-bis[5-hydroxy-6-methyl-4-pyridinemethanol]], the “effect on thresholds” value in data set [1] is recorded as “decreasing effect of the thresholds of evoked muscular discharge”.

Take `CCCCC/C=C\C/C=C\CCCCCCCC(=O)OCC(COP(=O)(O)O)OC(=O)CCCCCCC/C=C\C/C=C\CCCCC` (centres unmarked) [dilinoleoylphosphatidic acid disodium salt]: the “effect on the afferent pathway” value in the data set with sciatic nerve (in vivo) is on record as “facilitatory effect on the afferent pathway”. The “effect on evoked potential components N1 and N2” value in the data set on sciatic nerve (stimulation once per 1 second, 50 summed, FIGS. 15, 16) was “facilitatory effect on the components, N1 and N2, particularly on N1”. For the same compound, the mortality entry in the data set on male mice was “no mouse was died”.

With “Cytochrome C: already used as therapeutic agent for the treatment of consciousness disorder and perception and movement disorder”, in data set [1], the “effect on thresholds” value is listed as “decreasing effect of the thresholds of evoked muscular discharge”.

polyenephosphatidylcholine: in the data set with ICR mice, the “difference between male and female” value was “no difference between male and female”; the symptoms result is given as “no abnormal symptom was observed except that the voluntary movement was slightly inhibited in the groups administered in a large dose”. Further, in the data set on Spragne-Dowley rats, the “difference between male and female” value is “no difference between male and female”; the symptoms result is reported as “no abnormal symptom was observed except that the voluntary movement was slightly inhibited in the groups administered in a large dose”.
